This test deals with P58^IPK and DER-1. The test can be described thus: Northern blot analysis of XBP-1s transcription targets. The class given is cell-based, human. The settings on record: 2 μM, Tm or hypoxia 24 hours. The procedure:
Cells were cultured in 10 cm plates, harvested, and total RNA recovered with Trizol (Invitrogen, San Diego, Calif.). Total RNA (10 μg) was resolved on a 1% agarose-formaldehyde gel. ^32P-labeled probes were prepared using the Rediprime II random-prime labeling kit (GE-Amersham, Buckinghamshire, UK). The primers used to PCR amplify probes are as follows. P58^IPK: 5′[…] 3′ (SEQ ID NO: 4); 5′ […] 3′ (SEQ ID NO: 5). DER-1: 5′ […] 3′ (SEQ ID NO: 6); 5′[…] 3′ (SEQ ID NO: 7). Blots were incubated with probe overnight, washed three times in 2×SSC/0.2% SDS, dried, and exposed to a phosphorimager screen overnight. Images were analyzed using ImageQuant software (Molecular Dynamics).
A. XBP-luciferase reporter construct. Firefly luciferase was inserted downstream of the IRE1α splice site in human XBP-1 to enable the conditional translation of luciferase under ER stress in an IRE1α-dependent manner. […] After 24 hours, luciferase activity was analyzed in an automated plate reader. For each cell line, values are expressed as the percent inhibition of the median for Tm/Tg-treated wells, corrected for background. […] Values are expressed as the fold increases over uninduced levels. […] Cells were harvested, lysed, and analyzed by immunoblotting with antisera specific for HIF-1α (top), XBP-1s (middle) or actin (bottom). […] Total RNA was analyzed by Northern blotting using radiolabeled probes specific for P58^IPK or DER-1. […]

As to `Cc1csc(NC(=O)CSc2nc3c(c(C(F)(F)F)c2C#N)CCC3)n1` [Compound 9389], the “induction of P58^IPK and DER-1 expression” value is listed as “fully inhibited this response”.

These data come from patent publication US20090291857A1, “METHODS TO IDENTIFY INHIBITORS OF THE UNFOLDED PROTEIN RESPONSE” (THE BOARD OF TRUSTEES OF THE LELAND STANFORD JUNIOR …, priority 2006, published 2009).
